This is an account of results in PubChem BioAssay (NCI).

Molecules are shown by their SMILES. “And” between values parts separate entries of the source, which are not always exact repeats. Equal values may be shown once.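 Tested at 5 concentrations; 48 h exposure; 96-well plates; endpoints linearly interpolated, else capped at highest concentration. The concentration for 50% growth inhibition is given as GI50. TGI is the concentration that stops growth completely.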

Holding throughout (test): inhibition of tumour cell growth, NCI panel, 48 h
The test system of test [1] is HCT-116 colon.
For test [2], the system named is HOP-92 NSCLC.
Test [3] deals with IGROV1 ovarian.
Test [4] concerns LOX IMVI melanoma.
Test [5] has as its system MALME-3M melanoma.
Test [6] concerns MDA-MB-231 breast.
The subject of test [7] is SF-295 CNS.
Test [8] has as its system SF-539 CNS.
In test [9] the test system is UACC-62 melanoma.

Take `C/C1=C/C(=O)O[C@@H]2C[C@@H](CC[C@H](C)/C=C\C=C\CC1)O[C@@](OCCc1ccccc1)([C@@H]1CSC(=O)N1)C2`: the GI50 in test [1] is 225 nM; in test [2], 11.9 nM; in [3], 0.0275 µM; in test [4] it was 31.6 nM; in [5], 0.0694 µM; in test [6], 94.9 nM. For the same compound, the GI50 in test [7] was 38.3 nM; in test [8], 54.3 nM; in test [9], 104 nM. Besides, the TGI in test [1] was greater than 17.5 µM; in [2] it was 0.0661 µM; in [3], 0.074 µM; in test [5], 0.943 µM; in test [6], greater than 17.5 µM; in test [7], greater than 4.55 µM. Also, the TGI in test [8] and in test [9] was greater than 17.5 µM each time.
Regarding `CCCCCCNc1nc(N2CCOCC2)c2[nH]c(NCCCCCC)nc2n1`, the GI50 is 1830 nM in [1]; 1480 nM in test [4]; 1810 nM in test [6]; 1650 nM in test [7]; 1820 nM in test [8]; 1630 nM in test [9]. Moreover, the TGI in [1] is 3.27 µM; in test [4], 2.8 µM; in test [6], 3.3 µM; in [7], 3.21 µM; in test [8], 3.33 µM; in test [9], 3.12 µM.
For the compound `c1cc(-c2cn[nH]c2)cc(-c2cn[nH]c2)c1`, the TGI in test [1] was 49.4 µM; in test [2], greater than 100 µM; in test [3], greater than 100 µM; in test [4], greater than 100 µM; in [7], greater than 100 µM; in test [8], 55.4 µM. The compound further displayed a TGI in test [9] of 35.6 µM.
Regarding `CC(=O)[C-](C(C)=O)c1ccccc1.CC(=O)[C-](C(C)=O)c1ccccc1.CC[O-].CC[O-].[Ti+4]`, the GI50 was greater than 100000 nM in test [1]; greater than 100000 nM in test [2]; greater than 100 µM in test [3]; greater than 100000 nM in [4]; greater than 100 µM in test [5]; greater than 100000 nM in test [7]. Besides, the GI50 in [8] and in test [9] was greater than 100000 nM each time. The TGI in [1], in [2], in [3], in [4], in test [5] and in [7] was greater than 100 µM throughout. Moreover, the TGI in test [8] and in test [9] was greater than 100 µM in each case.
Turning to `COc1ccc(C(=O)C(C(=O)C(=O)Nc2nccs2)c2ccc(OC)cc2)cc1` (configuration not stated), the TGI in test [1], in test [2], in test [3], in test [4], in [5] and in test [8] was greater than 100 µM in each case. For the same compound, the TGI in test [9] is greater than 100 µM.
With `c1ccc2cc(Cn3c[n+](Cc4ccc5ccccc5c4)c4ccccc43)ccc2c1`, the GI50 was 192 nM in [2], 1100 nM in test [6] and 1590 nM in test [8]. The TGI in [2] was 1.57 µM; in test [6] it was 2.47 µM; in test [8], 3 µM.
Take `CO[C@@]12C[C@H]3[C@@H]([C@@H](O)[C@@H](OC(=O)/C=C/c4ccccc4)[C@@]4(O)C(C)(C)CCC[C@]34C)[C@@H](C)C1=CC(=O)O2`: the GI50 in test [1] is 8800 nM; in test [3] it was 29.5 µM; in [4] it was 4140 nM; in test [6] it was 585 nM; in test [7] it was 3840 nM; in test [8], 12400 nM. Besides, in test [9], the GI50 was 1550 nM. Further, the TGI was greater than 100 µM in [1]; greater than 100 µM in [3]; 15.6 µM in test [4]; 4.6 µM in [6]; 44.1 µM in test [7]; 27.4 µM in test [8]. Also, in test [9], the TGI was 5.62 µM.
Consider `Cc1cc(C)cc(Nc2ccc([N+](=O)[O-])c(NCCN3CCOCC3)n2)c1`, for which the GI50 in test [1] is 2.22 nM and 14.6 nM; in [4], 15.9 nM and 11.4 nM; in [5], 16 µM; in test [7] it was 0.446 nM; in test [8], 1.6 nM. For the same compound, the TGI in [1] was greater than 100 µM; in test [2] it was 24.3 µM; in test [3], greater than 100 µM; in [4], greater than 100 µM; in [5] it was greater than 100 µM; in [7], 25.8 µM. Besides, the TGI in test [8] was 0.00587 µM and 0.0564 µM; in [9] it was greater than 100 µM.
Consider `C#C[C@H](CCCC)OC(=O)N[C@H](C)c1ccccc1`, for which the TGI in [1] is 63.4 µM; in test [2], greater than 100 µM; in test [3] it was greater than 100 µM; in test [4] it was 87.8 µM; in test [7], greater than 100 µM; in [9], greater than 100 µM.
Consider `O=C(O)/C(=C\c1ccccc1Cl)S(=O)(=O)c1ccccc1`, for which the TGI in [1], in [2], in test [3], in test [4], in test [5] and in test [7] was greater than 100 µM throughout. Also, the TGI in test [8] and in [9] was greater than 100 µM throughout.
With `N[C@@H]1CCCC[C@@H]1N.O=C([O-])CN(CP(=O)([O-])[O-])CP(=O)([O-])[O-].[Pt+2]`, the GI50 in [1] was greater than 100000 nM; in [2], greater than 100000 nM; in [3], greater than 100 µM; in test [4], greater than 100000 nM; in test [5], greater than 100 µM; in [7], greater than 100000 nM. Further, the GI50 in test [8] and in [9] was greater than 100000 nM throughout. Moreover, the TGI in test [1], in test [2], in [3], in test [4], in test [5] and in test [7] was greater than 100 µM in each case. For the same compound, the TGI in test [8] and in test [9] was greater than 100 µM each time.
